{"source": "patent US20120077837A1", "about": "“ANTI-TUMOR AGENT” (EISAI R&D MANAGEMENT CO., LTD., priority 2010, published 2012)", "test_system": "human renal cell carcinoma cell line (Caki-1)", "test": "Tumor growth-inhibitory action by combined use of Compound A and everolimus in nude mice transplanted with Caki-1", "assay_type": "in vivo", "conditions": "subcutaneous Caki-1 xenograft, oral once per day, Compound A 10 mg/kg, everolimus 30 mg/kg", "procedure": "Using 5 individuals per group of nude mice (CAnN.Cg-Foxn1nu/Cr1Cr1j, female, Charles River Japan, Inc.), the antitumor effect obtained when Compound A, everolimus or the both compounds was/were administered was evaluated. Human-derived renal cell carcinoma cell line Caki-1(ATCC) was added to a medium (RPMI-1640, Wako Pure Chemical Industries, Ltd.) to a density of 2×10^8 cells/mL and suspended therein. To the resulting suspension, an equal volume of Matrigel™ matrix (Nippon Becton Dickinson Co., Ltd.) was added, and the resulting mixture was mixed sufficiently. The mixture was subcutaneously transplanted at the left flank of each mouse in an amount of 0.1 mL.\nForty eight days after the transplantation, the major axis and the minor axis were measured using an electronic digital caliper (Digimatic™ caliper, Mitutoyo Corporation). The mice were separated into groups such that the average value of the tumor volume is almost the same among the groups. The volume of the tumor was calculated according to the equation below.\nTumor volume=major axis (mm)×minor axis (mm)×minor axis (mm)/2\nCompound A was dissolved in purified water to a concentration of 1 mg/mL. Further, everolimus was suspended in a mixed solution of DMSO, Tween 80 and glucose (3.5:6.5:90 (V/V/V), hereinafter referred to as solvent) to a concentration of 3 mg/mL.\nTo the mice of each group, the Compound A solution and the solvent, the everolimus suspension and purified water, or the Compound A solution and the everolimus suspension were orally administered in an amount of 10 mL/kg once per day for 15 days. The doses of Compound A and everolimus were 10 mg/kg and 30 mg/kg, respectively. To the control group, 10 mL/kg each of purified water and the solvent was administered.\nThe tumor volume of each mouse was measured on Day 4, 7, 11 and 14 after the beginning of the administration. The ratio of the tumor volume observed on each day of the measurement relative to the tumor volume observed on the day when the administration was begun was calculated as the relative tumor volume (hereinafter referred to as RTV).", "key": {"[1]": {"conditions": "Day 4 after beginning of administration"}, "[2]": {"conditions": "Day 7 after beginning of administration"}, "[3]": {"conditions": "Day 11 after beginning of administration"}, "[4]": {"conditions": "Day 14 after beginning of administration"}}, "data": [{"molecule": "COc1cc2nccc(Oc3ccc(NC(=O)NC4CC4)c(Cl)c3)c2cc1C(N)=O", "note": "[Compound A, 4-[3-chloro-4-(cyclopropylaminocarbonyl)aminophenoxy]-7-methoxy-6-quinolinecarboxamide]", "values": [{"measurement": "relative tumor volume (RTV)", "setting": "[1]", "result": 1.15}, {"measurement": "relative tumor volume (RTV)", "setting": "[2]", "result": 1.15}, {"measurement": "relative tumor volume (RTV)", "setting": "[3]", "result": 1.07}, {"measurement": "relative tumor volume (RTV)", "setting": "[4]", "result": 1.02}]}, {"molecule": "COC1CC2CCC(C)C(O)(O2)C(=O)C(=O)N2CCCCC2C(=O)OC(C(C)CC2CCC(OCCO)C(OC)C2)CC(=O)C(C)/C=C(\\C)C(O)C(OC)C(=O)C(C)CC(C)/C=C/C=C/C=C/1C", "note": "(centres unmarked) [Everolimus, 42-O-(2-hydroxyethyl)-rapamycin]", "values": [{"measurement": "relative tumor volume (RTV)", "setting": "[1]", "result": 1.03}, {"measurement": "relative tumor volume (RTV)", "setting": "[2]", "result": 0.97}, {"measurement": "relative tumor volume (RTV)", "setting": "[3]", "result": 0.95}, {"measurement": "relative tumor volume (RTV)", "setting": "[4]", "result": 0.92}]}]}
